These results are taken from article PMC9544171, “Glucose‐dependent insulinotropic polypeptide receptor antagonist treatment causes a reduction in weight gain in ovariectomised high fat diet‐fed mice” (British Journal of Pharmacology, 2022).

Where a SMILES comes first, the peptide text is derived from it. The star is where a group is joined. C16 diacid = O=C(O)CCCCCCCCCCCCCCC(=O)*

In one data set the target is T1, mouse GIP receptor (Mus musculus, UniProt Q0P543).
T1 construct: host or cells: COS-7
T1 sequence (Q0P543 19-460): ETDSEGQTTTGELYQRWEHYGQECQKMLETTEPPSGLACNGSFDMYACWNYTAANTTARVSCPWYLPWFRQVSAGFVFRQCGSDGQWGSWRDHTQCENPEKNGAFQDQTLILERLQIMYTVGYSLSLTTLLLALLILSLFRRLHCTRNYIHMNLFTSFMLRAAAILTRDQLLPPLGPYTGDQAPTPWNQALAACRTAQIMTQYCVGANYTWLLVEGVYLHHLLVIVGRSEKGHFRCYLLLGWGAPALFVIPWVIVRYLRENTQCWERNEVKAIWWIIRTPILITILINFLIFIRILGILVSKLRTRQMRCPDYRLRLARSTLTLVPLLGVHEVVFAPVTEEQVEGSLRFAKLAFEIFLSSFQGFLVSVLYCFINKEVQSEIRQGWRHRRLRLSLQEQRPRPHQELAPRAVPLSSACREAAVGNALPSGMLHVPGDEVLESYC
Nature of the data set: cAMP accumulation, antagonism of mouse GIP(1‐42) in transfected COS‐7 cells. The class given is cell-based. How it is done: COS‐7 cells were cultured at 10% CO2 and 37°C in Dulbecco's Modified Eagle Medium 1885 supplemented with 10% foetal bovine serum, 2‐mM glutamine, 180‐units ml^−1 penicillin and […] streptomycin. Transient transfection of the cells with either human or mouse GIP receptor was performed using the calcium phosphate precipitation method as previously described (van der Velden et al., [2021]). A second set of cells was transiently transfected with either mouse GLP‐1 or GLP‐2 receptor. Following the day after transfection, the cells were seeded in white 96‐well plates with a density of 35.000 cells per well. The next day the assay was initiated by washing the cells with HEPES buffered saline (HBS) followed by an incubation step with HBS and 1‐mM 3‐isobutyl‐1‐methylxanthine for 30 min at 37°C. For agonist studies, the ligands were then added and incubated for an additional 30 min at 37°C. To test for antagonistic properties, the cells were first preincubated for 10 min with the antagonist with subsequent addition of the agonist and incubated for an additional 20 min. The HitHunter® cAMP assay (Eurofins DiscoverX, Fremont, USA) was carried out according to the manufacturer's protocol. Luminescence was measured by PerkinElmer™ Envision 2014 Multilabel Reader.
To facilitate comparisons of assay outputs (cAMP assays), the results (of duplicate measurements) were normalized, with the response to 10 pM of GIP(1‐42) set as 100%. All ligand concentrations are reported as log‐transformed. The IC50 log values can be found in Figure 1. In Figure 3c, we have subtracted glucose levels from baseline to show the net differences in glucose levels in our different treatment groups. […]
(§1) Results are presented as mean ± SE. Data were analysed with one‐way and two‐way analysis of variance (ANOVA) with Tukey's or Sidak multiple comparisons test and Student's unpaired t tests where appropriate. […] For the in vitro data IC50 values were determined by nonlinear regression using GraphPad Prism 9 (San Diego, California, USA). […]

Data set [1] in a line: Pharmacokinetic analysis after s.c. administration, plasma radioimmunoassay. It counts as in vivo. The following applies: sc, female C57Bl/6 mice, single s.c. 300 nmol·kg−1 (6 nmol per mouse), in‐house radioimmunoassay. The protocol:
To assess mGIPAnt‐1 half‐life following subcutaneous (s.c.) administration, mice (n = 6) received a single s.c. administration of 300‐nmol·kg^−1 mGIPAnt‐1. Retro‐orbital blood samples (50 μl) were taken using EDTA coated glass capillaries at (1) t = 0, 0.5, 1, 1.5, 2 and 2.5 h, (2) t = 2.5, 3, 4, 6, 8 and 22 h, or (3) t = 22, 24, 26, 28, 30 and 32 h and immediately added to Eppendorf tubes (Eppendorf, Hamburg, Germany) and centrifuged at 3500g, 20 min, 4°C. Plasma was transferred into Eppendorf tubes on dry ice and stored at −20°C for analysis.
mGIPAnt‐1 levels were measured by an in‐house radioimmunoassay using a polyclonal antibody recognizing a mid‐regional part of GIP (code no. 95234) (Gasbjerg et al., [2017]). mGIPAnt‐1 was used as standard and the assay buffer was a 80‐mM phosphate buffer pH 7.5, containing (in final concentrations) 0.1% HSA, 10‐mM EDTA, 500‐KIU ml^−1 aprotinin and 0.01‐mM valine pyrrolidide. Samples were carefully diluted to ensure that samples would fall within the measurable range of the assay. […]
as §1

Data set [2] deals with Female ovariectomised C57Bl6/J mice. Nature of the data set: Oral glucose tolerance test after 7 weeks of treatment. It counts as in vivo, mouse. How it is done: After 7 weeks HFD and mGIPAnt‐1 treatment, an oral glucose tolerance test was performed. Animals were fasted from 08:00 AM to 11:00 AM and received 2‐g·kg^−1 glucose through oral gavage. Blood glucose was measured in the tail vein samples using a hand‐held glucometer (Accu‐Chek Mobile, Roche) at t = 0, 15, 30, 45, 60, 120 and 180 min. Retro‐orbital blood samples (75 μl) were taken using EDTA coated glass capillaries at t = 0, 15, 30 and 60 min and centrifuged at 3500g, 20 min, 4°C. Plasma was transferred into Eppendorf tubes on dry ice and stored at −20°C for later analysis of insulin measurements.
Insulin levels in intraperitoneal glucose tolerance test and oral glucose tolerance test plasma samples were measured using a mouse insulin ELISA (catalogue no. 10‐1247‐10; Mercodia AB, Uppsala, Sweden). Adiponectin levels in terminal plasma samples were measured using a mouse adiponectin ELISA kit (catalogue no. 80569, Crystal Chem, Elk Grove Village, IL, USA). Adiponectin samples were carefully diluted in kit‐specific assay buffer. The manufacturer's instructions were followed closely.

The term IC50 denotes the concentration that inhibits the measured activity by half. As usually defined, the half-life is how long it takes for the measured level to halve. `CC[C@H](C)[C@H](NC(=O)[C@H](CO)NC(=O)[C@H](Cc1ccc(O)cc1)NC(=O)[C@H](CC(=O)O)NC(=O)[C@H](CO)NC(=O)[C@@H](NC(=O)[C@H](Cc1ccccc1)NC(=O)[C@@H](NC(=O)CNC(=O)[C@@H](N)CCC(=O)O)[C@@H](C)O)[C@@H](C)CC)C(=O)N[C@@H](C)C(=O)N[C@@H](CCSC)C(=O)N[C@@H](CC(=O)O)C(=O)N[C@@H](CCCCN)C(=O)N[C@H](C(=O)N[C@@H](CCCCNC(=O)CCCCCCCCCCCCCCC(=O)O)C(=O)N[C@@H](CCC(N)=O)C(=O)N[C@@H](CCC(N)=O)C(=O)N[C@@H](CC(=O)O)C(=O)N[C@@H](Cc1ccccc1)C(=O)N[C@H](C(=O)N[C@@H](CC(N)=O)C(=O)N[C@@H](Cc1c[nH]c2ccccc12)C(=O)N[C@@H](CC(C)C)C(=O)N[C@@H](CC(C)C)C(=O)N[C@@H](C)C(=O)N[C@@H](CCC(N)=O)C(=O)N[C@@H](CCCCN)C(=O)NCC(=O)N[C@@H](CCCCN)C(=O)N[C@@H](CCCCN)C(=O)N[C@@H](CC(N)=O)C(=O)N[C@@H](CC(=O)O)C(=O)N[C@@H](Cc1c[nH]c2ccccc12)C(=O)N[C@@H](CCCCN)C(=O)N[C@@H](Cc1c[nH]cn1)C(=O)N[C@@H](CC(N)=O)C(=O)O)C(C)C)[C@@H](C)CC` [mGIPAnt‐1] (H-EGTFISDYSIAMDKIK(C16 diacid)QQDFVNWLLAQKGKKNDWKHN-OH): the IC50 on mouse GIP receptor (COS‐7 transiently transfected with mouse GIPR, 10 min preincubation with antagonist, then mouse GIP(1‐42) at 50%–80% of Emax for 20 min, HitHunter cAMP, Hill slope −1.0, n = 5 independent experiments, read-out: IC50, inhibition of mGIP‐induced cAMP accumulation, mouse GIPR) is 269 nM. The “potency relative to mGIP(3‐30)NH2 on the mouse GIP receptor” value on mouse GIP receptor (ratio of IC50 813 nM / 269 nM) was 3 fold. Moreover, in data set [1] (calculated between t = 1.5 h and 32 h, n = 6), the half-life is around 7.2 h. For the same compound, in data set [1] (n = 6, read-out: time of peak plasma concentration), the Tmax was determined as 1.5 h. Also, the “glucose curve and iAUC, OGTT” value in data set [2] (7 weeks of 300 nmol·kg−1 s.c. daily, 2 g·kg−1 oral glucose) is given as “did not affect”. For the same compound, in data set [2] (7 weeks of 300 nmol·kg−1 s.c. daily, 2 g·kg−1 oral glucose, ELISA), the “insulin curve and iAUC, OGTT” value is listed as “did not affect”. For the same compound, the fasting insulin levels entry in data set [2] (7 weeks of treatment) was “not affected”. In addition, the “fasting glucose levels, HFD” value in data set [2] (7 weeks of treatment, versus Vehicle/HFD) is “significantly decreased”.
